Data taken from patent US9833423B2 (KOREA RESEARCH INSTITUTE OF CHEMICAL TECHNOLOGY, priority 2011, dated 2017).
Converted amounts (≈) assume the structure as drawn. Like-named read-outs stand apart in the source and are kept apart here.

Legend:
[1] = in vivo, cited from earlier work
[2] = in vivo; cited from earlier work
Entero-virus 70 = experiment: Cytopathic effect (CPE) inhibition assay; assay type: cell-based, Enterovirus 70; settings: Enterovirus D, MRC5, 48 h; Table 3; MRC-5, 37° C., 2 days
in vitro = settings: human
[3] = Cytotoxicity (CC50) in mock-infected cells, MTT assay, Experimental Example 1; settings: human
[4] = in vivo; cited from earlier work; remark: listed apart in the source
Coxsackie-virus B1 = experiment: Cytopathic effect (CPE) inhibition assay; assay type: cell-based, Coxsackievirus B1; settings: Enterovirus B, HeLa37, 48 h
Coxsackie-virus B3 = experiment: Cytopathic effect (CPE) inhibition assay; assay type: cell-based, Coxsackievirus B3; settings: Enterovirus B, HeLa37, 48 h
[5] = cited from earlier work
[6] = system: 48 rhinovirus types and coxsackievirus A21, B3, enterovirus 70 and echovirus 11; settings: cited from earlier work
Polio-virus 3 = experiment: microbe, parasite or virus in culture; assay type: cell-based, Poliovirus 3; settings: Enterovirus C, HeLa37, 48 h, read-out: Polio-virus 3 EC50
Coxsackie-virus A24 (HG) = experiment: Cytopathic effect (CPE) inhibition assay; assay type: cell-based, Coxsackievirus A24; settings: Enterovirus C, MRC5, 48 h; Table 3; MRC-5, 37° C., 2 days
[7] = read-out: Coxsackie-virus B1 EC50
[8] = read-out: Coxsackie-virus B3 EC50
[9] = Table 3, HeLa, 37° C., 2 days, read-out: EC50 Coxsackie-virus B1
[10] = Table 3, HeLa, 37° C., 2 days, read-out: EC50 Coxsackie-virus B3
[11] = Table 4, HeLa, 37° C., 2 days, read-out: Coxsackie-virus B1 EC50
[12] = Table 4, HeLa, 37° C., 2 days, read-out: Coxsackie-virus B3 EC50

Cc1cc(CCCCCCCOc2ccc(C3=NCCO3)cc2)on1 [disoxaril]
bioavailability [1]: low
metabolization and excretion [2]: rapid

CC(=O)Oc1cc(C)c(C)cc1C1(OC(C)=O)C(=O)c2ccccc2C1=O [Example 2, 2-(2-Acetoxy-1,3-dioxo-2,3-dihydro-1H-inden-2-yl)-4,5-dimethylphenyl acetate]
EC50 (Entero-virus 70): < 1 µg/mL
melting point: 206 to 207 °C
CC50 (in vitro; CC50): > 100 µg/mL

CCC(=O)C(CCCCCCOc1ccc(OC)cc1Cl)C(=O)CC [arildone]
bioavailability [1]: low

CC(C)c1ccc(C2(OC(=O)N(C)C)C(=O)c3ccccc3C2=O)c(OC(=O)N(C)C)c1 [Example 31, Dimethyl-carbamic acid 2-(2-dimethylcarbamoyloxy-1,3-dioxo-indan-2-yl)-5-isopropyl-phenyl ester]
melting point: 203 to 205 °C
CC50 [3]: > 100 µg/mL

Cc1cc(CCCCCOc2c(Cl)cc(C3=NCCO3)cc2Cl)on1 [WIN 54954]
metabolization and excretion [2]: rapid
side effects [4]: skin rash

CC(=O)NC1(c2ccc(C(C)C)cc2OC(=O)N(C)C)C(=O)c2ccccc2C1=O [Example 98, Dimethyl-carbamic acid 2-(2-acetylamino-1,3-dioxo-indan-2-yl)-5-isopropyl-phenyl ester]
EC50 (Coxsackie-virus B1; [7]): 0.013 µg/mL (≈ 0.0318 µM)
CC50 [3]: > 100 µg/mL

CNC(=O)Oc1cc(C(C)C)ccc1C1(NC(C)=O)C(=O)c2ccccc2C1=O [Example 97, 2-(2-Acetamido-1,3-dioxo-2,3-dihydro-1H-inden-2-yl)-5-isopropylphenyl methylcarbamate]
EC50 (Coxsackie-virus B1; [7]): < 0.01 µg/mL
EC50 (Coxsackie-virus B3; [8]): < 0.01 µg/mL
CC50 [3]: 45.1 µg/mL (≈ 114 µM)

Cc1cc(CCCOc2c(C)cc(-c3noc(C(F)(F)F)n3)cc2C)on1 [Pleconaril]
oral bioavailability ([1]; po): very good

CCc1ccc(C2(OC(C)=O)C(=O)c3ccccc3C2=O)c(OC(C)=O)c1 [Example 6, 2-(2-Acetoxy-1,3-dioxo-2,3-dihydro-1H-inden-2-yl)-5-ethylphenyl acetate]
EC50 (Coxsackie-virus B1; [9]): < 0.01 µg/mL
EC50 (Coxsackie-virus B3; [10]): 0.035 µg/mL
EC50 (Entero-virus 70): < 0.01 µg/mL
melting point: 136 to 137 °C
CC50 (in vitro; CC50): 23.5 µg/mL

CC(C)S(=O)(=O)n1c(N)nc2ccc(/C(=N/O)c3ccccc3)cc21 [Enviroxime]
therapeutic effects in clinical studies ([5]; clinical studies): insignificant or few therapeutic effects
pharmacokinetics in clinical studies ([5]; in vivo): bad
side effects in clinical studies ([5]; in vivo): unwanted side effects

CC(=O)NC1(c2ccc(C(C)C)cc2OC(=O)N(C)C)C(=O)c2cccc(N)c2C1=O (stereo not shown) [Example 100, 2-(2-Acetamido-4-amino-1,3-dioxo-2,3-dihydro-1H-inden-2-yl)-5-isopropylphenyl dimethylcarbamate]
EC50 (Coxsackie-virus B1; [7]): < 0.01 µg/mL
EC50 (Coxsackie-virus B3; [8]): < 0.01 µg/mL
CC50 [3]: > 100 µg/mL

CCOC(=O)/C=C/[C@H](C[C@@H]1CCNC1=O)NC(=O)[C@@H](CC(=O)[C@@H](NC(=O)c1cc(C)on1)C(C)C)Cc1ccc(F)cc1 [AG 7088]
concentration range with an effect in the cell culture [6]: nanomolar concentration range

CCNC(=O)Oc1cc(C(C)C)ccc1C1(NC(C)=O)C(=O)c2cccc(N)c2C1=O (stereo not shown) [Example 103, 2-(2-Acetamido-4-amino-1,3-dioxo-2,3-dihydro-1H-inden-2-yl)-5-isopropylphenyl ethylcarbamate]
EC50 (Coxsackie-virus B1; [11]): < 0.01 µg/mL
EC50 (Coxsackie-virus B3; [12]): < 0.01 µg/mL
EC50 (Polio-virus 3): 0.013 µg/mL (≈ 0.0307 µM)
CC50 (in vitro; Picorna-virus CC50): 26.3 µg/mL (≈ 62 µM)

CC(C)c1ccc(C2(NC(=O)c3ccccc3)C(=O)c3ccccc3C2=O)c(OC(=O)c2ccccc2)c1 [Example 70, 2-(2-Benzamido-1,3-dioxo-2,3-dihydro-1H-inden-2-yl)-5-isopropylphenyl benzoate]
EC50 (Coxsackie-virus B1; [9]): < 0.01 µg/mL
EC50 (Coxsackie-virus B3; [10]): < 0.01 µg/mL
EC50 (Coxsackie-virus A24 (HG)): < 1 µg/mL
melting point: 138 to 140 °C
CC50 (in vitro; CC50): > 117 µg/mL

CC(=O)Oc1cc(Cl)ccc1C1(OC(C)=O)C(=O)c2ccccc2C1=O [Example 3, 2-(2-Acetoxy-1,3-dioxo-2,3-dihydro-1H-inden-2-yl)-5-chlorophenyl acetate]
EC50 (Entero-virus 70): 0.013 µg/mL
melting point: 148 to 150 °C
CC50 (in vitro; CC50): 50.7 µg/mL

CCC(=O)NC1(c2ccc(C(C)C)cc2OC(=O)CC)C(=O)c2ccccc2C1=O [Example 68, 2-(1,3-Dioxo-2-propionamido-2,3-dihydro-1H-inden-2-yl)-5-isopropylphenyl propionate]
EC50 (Coxsackie-virus B1; [9]): < 0.01 µg/mL
EC50 (Coxsackie-virus B3; [10]): < 0.01 µg/mL
EC50 (Coxsackie-virus A24 (HG)): < 1 µg/mL
melting point: 173 to 175 °C
CC50 (in vitro; CC50): 66 µg/mL (≈ 162 µM)

CCCCC(=O)NC1(c2ccc(C(C)C)cc2OC(=O)CCCC)C(=O)c2cccc(N)c2C1=O (stereo not shown) [Example 81, 2-(4-amino-1,3-dioxo-2-pentanamido-2,3-dihydro-1H-inden-2-yl)-5-isopropylphenyl pentanoate]
EC50 (Coxsackie-virus B1; [11]): < 0.01 µg/mL
EC50 (Coxsackie-virus B3; [12]): < 0.01 µg/mL
EC50 (Polio-virus 3): 0.012 µg/mL (≈ 0.0251 µM)
CC50 (in vitro; Picorna-virus CC50): 41.3 µg/mL (≈ 86.2 µM)
